#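 Growth conditions: 96-well plates. Treatment: test compound, 48 hours, 5 concentrations. Analysis: linear interpolation between bracketing concentrations; unreached endpoints set to highest concentration. The concentration for 50% growth inhibition is given as GI50. TGI marks complete inhibition of growth.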
# System: HOP-62 NSCLC
# Assay: growth of human tumour cells (NCI), 48 h
SMILES,TGI [µM],GI50 [µM]
Cc1nc2ccccc2c(=O)n1-c1ccccc1I,> 100,
Cc1ccc2c(=O)cc(-c3ccc(F)cc3)[nH]c2n1,> 100,
CC(=O)NNc1nc(C)c(C(=O)NNC(=O)C(=O)Nc2ccc(Cl)cc2)s1,> 100,
CC1(C)CCc2c(c3c(c4c(=O)c(O)c(-c5ccc(O)cc5)oc24)OC(C)(C)CC3)O1,54.7,24.8
CN/N=C(/Cc1occc(=O)c1O)C(=O)Nc1ccccc1C,> 100,
Cc1cc(I)cc(CN(C)CCCCN2CCCCC2)c1O,28.3,14.4
O=C(N/C(=C\c1ccc(/C=C(\NC(=O)c2ccccc2)c2nc3cc([N+](=O)[O-])ccc3[nH]2)cc1)c1nc2cc([N+](=O)[O-])ccc2[nH]1)c1ccccc1,> 100,
COc1ccc(C(=O)Cn2c(C(=O)c3ccccc3)nc(-c3ccc(OC)cc3)c2-c2ccc(OC)cc2)cc1,> 100,74
O=C1c2ccccc2C2C1N2C(=O)C(F)(F)F (configuration not stated),> 100,
CC1=C(C(=O)NCc2ccccc2)C(/C=C/c2ccccc2)C(C(=O)NCc2ccccc2)=C(C)N1,> 100,
N#CCCN(CCC#N)c1ccc(/C=C2\N=C(c3cc([N+](=O)[O-])ccc3Cl)OC2=O)cc1,95.7,
CC1=C(C(=O)Nc2ccc(Cl)c(Cl)c2)C(c2cccc(Oc3ccccc3)c2)NC(=S)N1 (configuration not stated),24.2,14.2
COc1cc(-c2nn(-c3ccc(NC(=O)c4ccc(Cl)c(C(F)(F)F)c4)cc3)cc2-c2ccncc2)ccc1Cl,7.07,2.07
CN(C)CC[N+]1=Nc2cccc3cccc(c23)N1,> 100,
COc1ccc2c(C3=C(c4cn(C)c5ccccc45)C(=O)NC3=O)cn(C)c2c1,> 25,0.122
Cc1cc(C)nc(NS(=O)(=O)c2ccc(NC(=O)c3ccc(Cl)c4c(Nc5ccc(S(=O)(=O)Nc6nc(C)cc(C)n6)cc5)c5ccccc5nc34)cc2)n1,> 100,
N#CC(c1ccc(Cl)cc1)c1cccc(C(C#N)c2ccc(Cl)cc2)n1 (configuration not stated),> 100,
Cc1ccc(NC2=C(Cl)C(=O)N(Cc3ccccc3)C2=O)cc1O,> 100,34.8

# System: RXF 393 renal
# Assay: growth of human tumour cells (NCI), 48 h
SMILES,TGI [µM],GI50 [µM]
CCN(CCO)CC1CCCC2CCCCC21 (configuration not stated),> 100,
NNC(=O)Nc1cccnc1,> 100,
COc1ccc(-c2nc3sccn3c2/C(N)=N/C(=N)N)cc1OC,> 100,> 100
CCCCC(=O)OCC(=O)[C@]1(O)Cc2c(O)c3c(c(O)c2[C@@H](OC2CC(NC(=O)C(F)(F)F)C(O)C(C)O2)C1)C(=O)c1c(OC)cccc1C3=O (some centres not stated),2.62,
O=C(O)CCc1coc2ccc(O)cc12,> 100,
N#CC1C(C#N)C2(c3ccccc3)C(c3ccccc3)=NN(c3ccccc3)CC12 (configuration not stated),> 100,
COc1cc(Cc2cnc(/N=C3\C(=O)N(CN4CCN(c5c(F)cc6c(=O)c(C(=O)O)cn(C7CC7)c6c5OC)CC4C)c4ccc(F)cc43)nc2N)cc(OC)c1OC (configuration not stated),49.1,16
C=C(CN1CCN(c2ccc(Cl)cc2F)CC1)c1ccc(C(=O)Nc2ccccc2N)cc1,12.4,0.867
Cc1cccc2c(=O)cc(-c3ccccc3)[nH]c12,38.2,
COC(CN1C(=O)c2cccc3cccc(c23)C1=O)OC,> 100,
O=C(Nc1ccccc1)NS(=O)(=O)c1ccc(-n2nc3c(c2-c2cccs2)Cc2ccccc2-3)cc1,> 100,85.3
CCCCOC(=O)C1OC(O[C@H]2CCC3(C)C(CCC4(C)C3CC=C3C5CC(C)(C)CCC5(C(=O)O)CC[C@]34C)C2(C)C)C(OC2OC(CO)C(O)C(O)C2O)C(OC2OC(CO)C(O)C(O)C2O)C1O (some centres not stated),> 100,58.5
Cc1cc(I)cc(CN(C)CCCCN2CCCCC2)c1O,32.6,12.9
O=C(N/C(=C\c1ccc(/C=C(\NC(=O)c2ccccc2)c2nc3cc([N+](=O)[O-])ccc3[nH]2)cc1)c1nc2cc([N+](=O)[O-])ccc2[nH]1)c1ccccc1,> 100,
COc1ccc(C(=O)Cn2c(C(=O)c3ccccc3)nc(-c3ccc(OC)cc3)c2-c2ccc(OC)cc2)cc1,49.2,19.9
O=C1c2ccccc2C2C1N2C(=O)C(F)(F)F (configuration not stated),> 100,
CC1=C(C(=O)NCc2ccccc2)C(/C=C/c2ccccc2)C(C(=O)NCc2ccccc2)=C(C)N1,> 100,
CC1=C(C(=O)Nc2ccc(Cl)c(Cl)c2)C(c2cccc(Oc3ccccc3)c2)NC(=S)N1 (configuration not stated),22.1,7.33
COc1cc(-c2nn(-c3ccc(NC(=O)c4ccc(Cl)c(C(F)(F)F)c4)cc3)cc2-c2ccncc2)ccc1Cl,1.61,0.461
Cc1cc(C)nc(NS(=O)(=O)c2ccc(NC(=O)c3ccc(Cl)c4c(Nc5ccc(S(=O)(=O)Nc6nc(C)cc(C)n6)cc5)c5ccccc5nc34)cc2)n1,4.83,
CCCCCN(CCCCC)CCCNc1c2c(nc3ccc(Cl)cc13)CCCC2,7.95,2.82
O=C1/C(=C/c2ccccc2)CN(C(=O)C(Cl)(Cl)Cl)C/C1=C\c1ccccc1,4.02,
Cc1ccc(NC2=C(Cl)C(=O)N(Cc3ccccc3)C2=O)cc1O,> 100,52

# System: HCC-2998 colon
# Assay: growth of human tumour cells (NCI), 48 h
SMILES,TGI [µM],GI50 [µM]
CCN(CCO)CC1CCCC2CCCCC21 (configuration not stated),> 100,
NNC(=O)Nc1cccnc1,> 100,
COc1ccc(-c2nc3sccn3c2/C(N)=N/C(=N)N)cc1OC,> 100,43.1
CCCCCCCCCCCOc1ccc(C(=O)C(=O)c2ccc(OCCCCCCCCCCC)c(OCCCCCCCCCCC)c2)cc1OCCCCCCCCCCC,> 100,
COc1cc(CNc2cnc3cc(N)cc(N)c3n2)cc(OC)c1,25,11.7
CCCCC(=O)OCC(=O)[C@]1(O)Cc2c(O)c3c(c(O)c2[C@@H](OC2CC(NC(=O)C(F)(F)F)C(O)C(C)O2)C1)C(=O)c1c(OC)cccc1C3=O (some centres not stated),3.81,
O=C(O)CCc1coc2ccc(O)cc12,> 100,
Clc1cc2nsnc2c(Cl)n1,> 100,
N#CC1C(C#N)C2(c3ccccc3)C(c3ccccc3)=NN(c3ccccc3)CC12 (configuration not stated),> 100,
COc1cc(Cc2cnc(/N=C3\C(=O)N(CN4CCN(c5c(F)cc6c(=O)c(C(=O)O)cn(C7CC7)c6c5OC)CC4C)c4ccc(F)cc43)nc2N)cc(OC)c1OC (configuration not stated),26.1,12.6
C=C(CN1CCN(c2ccc(Cl)cc2F)CC1)c1ccc(C(=O)Nc2ccccc2N)cc1,> 60.5,3.84
Cc1cccc2c(=O)cc(-c3ccccc3)[nH]c12,18.1,
COC(CN1C(=O)c2cccc3cccc(c23)C1=O)OC,> 100,
O=C(Nc1ccccc1)NS(=O)(=O)c1ccc(-n2nc3c(c2-c2cccs2)Cc2ccccc2-3)cc1,31.8,15.3
CCCCOC(=O)C1OC(O[C@H]2CCC3(C)C(CCC4(C)C3CC=C3C5CC(C)(C)CCC5(C(=O)O)CC[C@]34C)C2(C)C)C(OC2OC(CO)C(O)C(O)C2O)C(OC2OC(CO)C(O)C(O)C2O)C1O (some centres not stated),38.1,21.8
Cc1nc2ccccc2c(=O)n1-c1ccccc1I,> 100,

SMILES,TGI [µM],GI50 [µM]
Cc1ccc2c(=O)cc(-c3ccc(F)cc3)[nH]c2n1,> 100,
CC(=O)NNc1nc(C)c(C(=O)NNC(=O)C(=O)Nc2ccc(Cl)cc2)s1,> 100,
CC1(C)CCc2c(c3c(c4c(=O)c(O)c(-c5ccc(O)cc5)oc24)OC(C)(C)CC3)O1,> 100,> 100
CN/N=C(/Cc1occc(=O)c1O)C(=O)Nc1ccccc1C,> 100,
Cc1cc(I)cc(CN(C)CCCCN2CCCCC2)c1O,30.1,16
O=C(N/C(=C\c1ccc(/C=C(\NC(=O)c2ccccc2)c2nc3cc([N+](=O)[O-])ccc3[nH]2)cc1)c1nc2cc([N+](=O)[O-])ccc2[nH]1)c1ccccc1,77.2,
COc1ccc(C(=O)Cn2c(C(=O)c3ccccc3)nc(-c3ccc(OC)cc3)c2-c2ccc(OC)cc2)cc1,> 100,> 100
CC1=C(C(=O)NCc2ccccc2)C(/C=C/c2ccccc2)C(C(=O)NCc2ccccc2)=C(C)N1,> 100,
N#CCCN(CCC#N)c1ccc(/C=C2\N=C(c3cc([N+](=O)[O-])ccc3Cl)OC2=O)cc1,52.6,
COc1cc(-c2nn(-c3ccc(NC(=O)c4ccc(Cl)c(C(F)(F)F)c4)cc3)cc2-c2ccncc2)ccc1Cl,> 100,3.22
CN(C)CC[N+]1=Nc2cccc3cccc(c23)N1,> 100,
COc1ccc2c(C3=C(c4cn(C)c5ccccc45)C(=O)NC3=O)cn(C)c2c1,> 25,0.41
N#CC(c1ccc(Cl)cc1)c1cccc(C(C#N)c2ccc(Cl)cc2)n1 (configuration not stated),> 100,
CCCCCN(CCCCC)CCCNc1c2c(nc3ccc(Cl)cc13)CCCC2,8.89,2.48
Cn1c2ccccc2c2c(Nc3ccccc3)c3ccccc3nc21,> 100,40.9

# System: EKVX NSCLC
# Assay: growth of human tumour cells (NCI), 48 h
SMILES,TGI [µM],GI50 [µM]
CCN(CCO)CC1CCCC2CCCCC21 (configuration not stated),> 100,
NNC(=O)Nc1cccnc1,> 100,
COc1ccc(-c2nc3sccn3c2/C(N)=N/C(=N)N)cc1OC,> 100,66.4
